{
  "source": "patent US8664277B2",
  "about": "“Compounds and methods for PKCθ inhibition” (Complegen Partners, LLC, priority 2008, dated 2014)",
  "type_in_all_cases": "cell-based",
  "key": {"PKC delta": {"target": "T1, PKC delta (Homo sapiens, UniProt Q05655)", "T1 construct": "expressed in transfected cells; host or cells: yeast (XenoGene strain)", "T1 sequence (Q05655 whole entry)": "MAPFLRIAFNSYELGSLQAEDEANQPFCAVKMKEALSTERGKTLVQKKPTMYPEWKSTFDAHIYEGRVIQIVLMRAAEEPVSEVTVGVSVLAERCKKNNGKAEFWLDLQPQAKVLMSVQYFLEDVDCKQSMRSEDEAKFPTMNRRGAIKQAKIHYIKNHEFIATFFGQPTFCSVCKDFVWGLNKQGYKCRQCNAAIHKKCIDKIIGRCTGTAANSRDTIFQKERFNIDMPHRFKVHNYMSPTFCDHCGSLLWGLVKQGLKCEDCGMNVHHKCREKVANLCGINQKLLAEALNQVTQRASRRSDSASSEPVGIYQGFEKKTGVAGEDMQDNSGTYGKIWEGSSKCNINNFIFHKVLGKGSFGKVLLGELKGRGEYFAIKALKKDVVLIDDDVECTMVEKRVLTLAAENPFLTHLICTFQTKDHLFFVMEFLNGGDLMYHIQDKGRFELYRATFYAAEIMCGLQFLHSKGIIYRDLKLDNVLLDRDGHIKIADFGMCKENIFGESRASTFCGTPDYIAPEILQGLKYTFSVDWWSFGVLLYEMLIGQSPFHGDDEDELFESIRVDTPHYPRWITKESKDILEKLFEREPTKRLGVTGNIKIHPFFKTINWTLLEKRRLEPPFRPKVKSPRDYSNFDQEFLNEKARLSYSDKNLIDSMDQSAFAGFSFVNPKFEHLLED", "assay": "XenoGene counter-screen, PKC delta", "settings": "inverse of (PKC-theta IC50)/(PKC-X IC50)", "procedure": "(§1) To identify compounds as being selective PKC theta inhibitors the IC50 values are determined against XenoGene™ strains containing other XenoGenes™, especially certain other PKC genes (see Example 10).\n(§2) Human PKC theta gene (cDNA) was used to generate a XenoGene™ system as previously described (U.S. Pat. Nos. 6,998,261, 6,232,074), which was used to screen compounds in a chemical compound library. XenoGene™ systems used as counter-screens were constructed similarly using the gene for the appropriate counter-screen target. In particular, human genes (cDNA) encoding PKC delta, PKC eta and PKC epsilon were used to generate XenoGene™ systems."}, "PKC eta": {"target": "T2, PKC eta (Homo sapiens, UniProt P24723)", "T2 construct": "expressed in transfected cells; host or cells: yeast (XenoGene strain)", "T2 sequence (P24723 whole entry)": "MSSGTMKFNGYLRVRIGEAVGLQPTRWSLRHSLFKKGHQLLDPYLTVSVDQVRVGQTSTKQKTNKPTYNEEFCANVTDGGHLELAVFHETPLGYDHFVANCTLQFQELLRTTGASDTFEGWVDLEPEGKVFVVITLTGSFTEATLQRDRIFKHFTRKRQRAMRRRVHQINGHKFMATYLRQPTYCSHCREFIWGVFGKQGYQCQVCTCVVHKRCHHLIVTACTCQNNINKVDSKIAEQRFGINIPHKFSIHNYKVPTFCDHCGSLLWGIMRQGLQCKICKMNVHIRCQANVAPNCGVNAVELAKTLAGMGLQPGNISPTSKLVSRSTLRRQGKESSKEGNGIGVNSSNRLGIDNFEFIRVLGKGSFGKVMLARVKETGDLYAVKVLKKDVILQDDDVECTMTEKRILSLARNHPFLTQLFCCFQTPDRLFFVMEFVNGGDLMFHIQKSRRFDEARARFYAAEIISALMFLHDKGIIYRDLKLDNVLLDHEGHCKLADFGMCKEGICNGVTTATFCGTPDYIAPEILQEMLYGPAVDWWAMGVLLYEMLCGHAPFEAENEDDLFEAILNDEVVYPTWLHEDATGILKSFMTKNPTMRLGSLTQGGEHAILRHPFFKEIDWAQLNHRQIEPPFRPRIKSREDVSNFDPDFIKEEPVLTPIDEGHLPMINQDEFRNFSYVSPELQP", "assay": "XenoGene counter-screen, PKC eta", "settings": "inverse of (PKC-theta IC50)/(PKC-X IC50)", "procedure": "as §1, §2"}, "yeast PKC1": {"target": "T3, yeast PKC1 (Saccharomyces cerevisiae, UniProt P24583)", "T3 construct": "endogenous in cells; host or cells: yeast control strain", "T3 sequence (P24583 1-1151)": "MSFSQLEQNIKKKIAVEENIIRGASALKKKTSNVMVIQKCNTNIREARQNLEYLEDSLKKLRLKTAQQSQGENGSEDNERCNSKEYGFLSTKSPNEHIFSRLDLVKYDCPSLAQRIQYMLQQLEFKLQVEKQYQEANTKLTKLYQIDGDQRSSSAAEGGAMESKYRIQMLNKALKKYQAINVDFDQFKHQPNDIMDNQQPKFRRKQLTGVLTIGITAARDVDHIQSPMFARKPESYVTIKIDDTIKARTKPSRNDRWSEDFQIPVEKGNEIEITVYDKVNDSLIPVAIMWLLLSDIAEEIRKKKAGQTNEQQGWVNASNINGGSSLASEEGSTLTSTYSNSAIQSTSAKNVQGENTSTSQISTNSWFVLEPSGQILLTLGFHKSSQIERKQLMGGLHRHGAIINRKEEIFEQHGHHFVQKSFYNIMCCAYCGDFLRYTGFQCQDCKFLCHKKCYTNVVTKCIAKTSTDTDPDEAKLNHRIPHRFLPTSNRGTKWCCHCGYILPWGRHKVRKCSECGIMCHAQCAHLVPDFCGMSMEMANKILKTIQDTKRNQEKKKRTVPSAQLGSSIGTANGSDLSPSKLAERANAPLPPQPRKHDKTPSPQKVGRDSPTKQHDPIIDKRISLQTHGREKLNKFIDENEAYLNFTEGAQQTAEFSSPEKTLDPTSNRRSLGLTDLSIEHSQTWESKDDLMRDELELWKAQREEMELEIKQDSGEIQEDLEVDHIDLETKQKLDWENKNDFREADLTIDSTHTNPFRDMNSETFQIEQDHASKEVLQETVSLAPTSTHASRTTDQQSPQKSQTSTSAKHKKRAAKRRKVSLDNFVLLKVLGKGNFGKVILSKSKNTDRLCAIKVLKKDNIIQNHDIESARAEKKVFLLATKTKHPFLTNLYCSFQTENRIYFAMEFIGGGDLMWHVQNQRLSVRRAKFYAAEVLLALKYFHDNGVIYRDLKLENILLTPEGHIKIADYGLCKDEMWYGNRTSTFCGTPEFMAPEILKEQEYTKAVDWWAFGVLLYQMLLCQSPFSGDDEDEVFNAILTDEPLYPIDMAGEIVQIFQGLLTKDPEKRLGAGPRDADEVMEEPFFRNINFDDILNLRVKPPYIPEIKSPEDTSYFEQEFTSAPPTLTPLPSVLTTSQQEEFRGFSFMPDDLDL", "assay": "XenoGene counter-screen, yeast PKC1", "settings": "inverse of (PKC-theta IC50)/(PKC-X IC50)", "description": "Using the XenoGene™ system described within, compounds inhibiting PKCθ are identified. The XenoGene™ system is a technology developed and patented by CompleGen wherein genes (“XenoGenes”™) from a target organism (e.g. humans) are used to functionally replace essential genes of a simple organism (yeast). These modified yeast are used to select compounds that act specifically on the protein encoded by the target gene and eliminate compounds that are not specific. XenoGene™ constructs provide a very high throughput screening system that allows identification of compounds active on the function of the target protein in a cell under physiological conditions on “first-pass” screening and further, to selectively counter-screen against 200 human targets or more if necessary. […] The relative potencies of the active compounds is determined by titration to find the concentration of compound providing 50% inhibition of growth (IC50) against the yeast containing the target gene (Table 1).\nas §2"}, "B-cell hybridoma": {"system": "B-cell hybridoma", "assay": "B-cell hybridoma non-T cell control, live cells counted by flow cytometry", "procedure": "Mice generated from the nucleus of a mature T cell (see Hochedlinger K, Jaenisch R. (2002) Nature 415; 1035) with a “fixed” rearranged T cell receptor spontaneously generate T cell lymphomas which resemble human T cell lymphomas. Several T cell lymphomas (1-4) isolated from these mice were treated with compound 471. All T cell lymphomas were inhibited by compound 471. A B-cell hybridoma served as a non-T cell control and was not affected by the compound. Cells were seeded into 96-well plates (5,000 cells/well) in the presence of compound 471 at concentrations ranging from 0.1 to 5 uM. After 4 days growth (37° C., 5% CO2), live cells were counted by flow cytometry (Serwold et al. (2007) J. Immunol. 179; 928)"}},
  "note": "pEC50: −log10 of the molar value.",
  "data": [
    {"smiles": "CC(C)(C)c1ccc(Oc2ccc(N)cc2)cc1", "note": "[Compound 471]", "values": [
      {"measurement": "Selectivity for PKC-theta v. PKC-delta", "setting": "PKC delta", "value": 2.5},
      {"measurement": "Selectivity for PKC-theta v. PKC-eta", "setting": "PKC eta", "value": 0.36},
      {"measurement": "Selectivity for PKC-theta v. yeast PKC1", "setting": "yeast PKC1", "value": 28},
      {"measurement": "pEC50", "setting": "B-cell hybridoma; 96 h, B-cell Hybridoma, 4 days growth", "value": "< 5.30"},
      {"measurement": "Effect on B-cell hybridoma", "setting": "B-cell hybridoma; non-T cell control, 0.1 to 5 uM", "value": "not affected"}
    ]}
  ]
}
